Measured values taken from patent publication US20210277009A1, “PRMT5 INHIBITORS” (Merck Sharp & Dohme Corp., priority 2018, published 2021).
Like-named read-outs stand apart in the source and are kept apart here. Blank lines part the entries; values can stand above or below the molecule they belong to.

How the values were obtained:
[1] = target: T1, PRMT5-MEP50 enzyme complex (Homo sapiens, UniProt O14744); test: PRMT5-MEP50 Enzyme Methylation Assay; format: biochemical
T1 construct: 1.25 nM of Full-length (FL)-PRMT5-MEP50 enzyme complex; made in house; host or cells: baculovirus-transfected Sf21 cells
T1 sequence (O14744 whole entry): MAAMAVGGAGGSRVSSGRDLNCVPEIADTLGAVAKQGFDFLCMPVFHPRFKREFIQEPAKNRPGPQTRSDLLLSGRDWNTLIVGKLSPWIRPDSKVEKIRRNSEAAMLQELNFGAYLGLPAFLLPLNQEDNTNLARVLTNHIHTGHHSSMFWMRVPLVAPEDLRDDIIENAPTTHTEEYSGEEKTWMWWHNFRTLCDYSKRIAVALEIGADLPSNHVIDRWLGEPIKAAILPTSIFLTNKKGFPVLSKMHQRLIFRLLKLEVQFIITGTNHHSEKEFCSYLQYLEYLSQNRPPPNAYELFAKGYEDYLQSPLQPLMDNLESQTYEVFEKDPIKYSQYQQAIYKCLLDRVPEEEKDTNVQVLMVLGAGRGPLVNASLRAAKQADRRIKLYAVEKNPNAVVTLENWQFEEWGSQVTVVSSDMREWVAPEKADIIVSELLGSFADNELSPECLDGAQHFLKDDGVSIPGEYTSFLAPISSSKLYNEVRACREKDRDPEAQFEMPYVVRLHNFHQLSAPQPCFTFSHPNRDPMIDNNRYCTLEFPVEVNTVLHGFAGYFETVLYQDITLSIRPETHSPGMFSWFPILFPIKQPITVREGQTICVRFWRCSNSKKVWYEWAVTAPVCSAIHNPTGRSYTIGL
T1 sequence (Q9BQA1 whole entry partner): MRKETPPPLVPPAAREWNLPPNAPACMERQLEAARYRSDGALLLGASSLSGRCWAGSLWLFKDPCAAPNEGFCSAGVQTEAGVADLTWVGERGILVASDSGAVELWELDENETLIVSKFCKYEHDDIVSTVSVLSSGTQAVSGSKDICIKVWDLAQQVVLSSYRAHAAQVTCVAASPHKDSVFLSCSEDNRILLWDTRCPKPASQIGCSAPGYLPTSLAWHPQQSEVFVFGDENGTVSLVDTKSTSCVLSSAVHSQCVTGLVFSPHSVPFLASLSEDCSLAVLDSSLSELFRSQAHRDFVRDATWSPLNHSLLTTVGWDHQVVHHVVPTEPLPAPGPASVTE
Experimental: PRMT5-MEP50 biochemical assay is a direct measurement of the methylation activity of the enzyme complex on a short peptide substrate derived from the N-terminus of H4 histone. Methylation experiment is performed with recombinant PRMT5-MEP50 protein complex. The assessment of inhibitory effect of small molecules is measured by tire effectiveness of the compounds to inhibit tins reaction (EC50).
In this assay, the potency (EC50) of each compound was determined from a twenty-point (1:2 serial dilution; top compound concentration of 100000 nM) titration curve using the following outlined procedure. To each well of a white ProxiPlus 384 well-plate, 100 nL of compound (1% DMSO in final assay volume of 10 μL) was dispensed, followed by the addition of 8 μL of 1× assay buffer (50 mM Bicine pH 8.0, 1 mM DTT, 0.004% Tween20, 0.01% BSA) containing 1.25 nM of Full-length (FL)-PRMT5-MEP50 enzyme complex (recombinant proteins from baculovirus-transfected Sf21 cells: FL-PRMT5; MW=[…] and FL-MEP50; MW=38614) and 1 μL of 150 μM S-(5′-Adenosyl)-L-Methionine Chloride (SAM). Plates were sealed and placed in a 37° C. humidified chamber for a 60 minutes pre-incubation with compound. Subsequently, each reaction was initiated by the addition of 1 μL 1× assay buffer containing 750 nM biotinylated H4R3(Mel) peptide. The final reaction in each well of 10 μL consists of 1.0 nM PRMT5-MEP50, 75 nM biotinylated-peptide, and […] SAM. Methylation reactions were allowed to proceed for 150 minutes in a sealed plate at 37° C. Reactions were immediately quenched by the addition of 1 μL of 5% formic acid. Plates were then frozen and shipped to SAMDITM Tech Inc. to determine the percent conversion from H4R3(Mel) to H4R3(Me2). Dose-response curves were generated by plotting percent effect (% product conversion; Y-axis) vs. Log 10 compound concentrations (X-axis). EC50 values were determined by non-linear regression according to models for either sigmoidal (4 parameters) or biphasic (7 parameters) dose-response curves.

[2] = system: symmetric dimethylation of arginine (SDMA) of PRMT5 substrates in MCF-7 cells; test: PRMT5 Cell Target Engagement (TE) Assay; format: cell-based; details: treated for 3 days, nuclear SDMA by high content imaging, top concentration 10000 nM
Text: The PRMT5 TE assay is a biomarker assay for identifying compounds that inhibit symmetric dimethylation of arginine (SDMA) of PRMT5 substrates. The following substrates have been reported for PRMT5: histone H2A and H4 R3, Histone H3 R2, Histone H3 R8, spliceosome Sm proteins, ribosomal protein RPS10, p53, FEN1, nudeoplasmin, nucleolin, EGFR and EBNA. The assay will focus on detecting symmetrically dimethylated nuclear proteins using high content imaging technology. Detection of the expression of symmetrically dimethylated nuclear proteins is through a mixture of primary rabbit monoclonal antibodies to SDMA (CST 13222), which in turn recognized by an Alexafluor 488 dye-conjugated anti-rabbit IgG secondary antibody. The IN Cell Analyzer 2200 or Opera-Phenix measures nuclear Alexafluor 488 fluorescent dye intensity that is directly related to the level of expression of symmetrically dimethylated nuclear proteins at the single cell level. Nuclear AF488 dye intensities are compared to the mean value for DMSO treated cells (MIN) to report percent of inhibition for each compound-treated well.
In this assay, the cell potency (EC50) of each compound was determined from a ten point (1:3 serial dilution; top compound concentration of 10000 nM) titration curve using the following outlined procedure. Each well of a BD falcon collagen coated black/clear bottom 384-well plate was seeded with 4000 MCF-7 cells in 30 μl media and allowed to attach for 5 h. Media is ATCC-formulated Eagle's Minimum Essential Medium, Catalog No. 30-2003. To make the complete growth medium, the following components were added to the base medium: 0.01 mg/ml human recombinant insulin; fetal bovine serum to a final concentration of 10%. Additional 30 μl of media containing 2× compounds were added to each well. Cells were treated for 3 days in 37° C. CO2 incubator. On day 3, cells were fixed with Cytofix, permeablized with 0.4% Triton-X-100/Cytofix, and washed with D-PBS without Ca/Mg. Cells were blocked with Licor Odessey blocking reagent for 1 h at room temperature, followed by incubation with anti-SDMA (1:1000) antibody at 4° C. overnight. 1° antibody was removed, followed by three washings with DPBS without Ca/Mg and 0.05% Tween20. Hoechst (5 μg/ml), Cell Mask deep stain (1:2000) and Alexa488-conjugated goat anti-rabbit IgG (2 μg/mL) was added for 1 hour at room temperature. A final washing step (three washes) was performed before sealing plate for imaging on In Cell Analyzer 2200 or Opera-Phenix. Images from analyzer were uploaded to Columbus (at WP or BOS) for image analysis. IC50 values were determined by 4 parameters robust fit of percent fluorescence units vs. (Logic) compound concentrations.

[3] = single EC50 from 4 parameters single site sigmoidal model, or first EC50 of 7 parameters biphasic model, 1.0 nM PRMT5-MEP50, H4R3(Me1) peptide, SAM, read-out: Enzyme Methylation Assay (EC50 or EC50_1)
[4] = second EC50 of 7 parameters biphasic model, read-out: Enzyme Methylation Assay (EC50_2)

SMILES: Nc1nc2cc(OC[C@H]3S[C@@H](n4ccc5c(N)ncnc54)[C@H](O)[C@@H]3O)ccc2cc1Br [Example 1, (2R,3S,4R,5R)-2-(((2-amino-3-bromoquinolin-7-yl)oxy)methyl)-5-(4-amino-7H-pyrrolo[2,3-d]pyrimidin-7-yl)tetrahydrothiophene-3,4-diol]
EC50 [1, 4]: 0.0767 µM | EC50 [1, 3]: 0.0003 µM | EC50 ([2]; Homo sapiens, MCF7, 72 h): 0.208 µM

SMILES: Nc1nc2cc(OC[C@H]3S[C@@H](n4ccc5c(N)ncnc54)[C@H](O)[C@@H]3O)ccc2cc1Cl [Example 2, 7-[5-O-(2-amino-3-chloroquinolin-7-yl)-4-thio-beta-D-ribofuranosyl]-7H-pyrrolo[2,3-d]pyrimidin-4-amine]
EC50 [1, 4]: 0.2 µM | EC50 [1, 3]: 0.0022 µM | EC50 ([2]; Homo sapiens, MCF7, 72 h): 0.113 µM

SMILES: Nc1nc2cc(OC[C@H]3S[C@@H](n4ccc5c(N)ncnc54)[C@H](O)[C@@H]3O)ccc2cc1F [Example 3, 7-[5-O-(2-amino-3-fluoroquinolin-7-yl)-4-thio-beta-D-ribofuranosyl]-7H-pyrrolo[2,3-d]pyrimidin-4-amine]
EC50 [1, 4]: 0.902 µM | EC50 [1, 3]: 0.006 µM | EC50 ([2]; Homo sapiens, MCF7, 72 h): 0.596 µM

SMILES: Nc1ncnc2c1ccn2[C@@H]1S[C@H](COc2ccc3ccc(NCC4CC4)nc3c2)[C@@H](O)[C@H]1O [Example 4, 7-(5-O-{2-[(cyclopropylmethyl)amino]quinolin-7-yl}-4-thio-beta-D-ribofuranosyl)-7H-pyrrolo[2,3-d]pyrimidin-4-amine]
EC50 [1, 4]: 0.569 µM | EC50 [1, 3]: 0.0012 µM | EC50 ([2]; Homo sapiens, MCF7, 72 h): 0.0505 µM

SMILES: Nc1nc2cc(OC[C@H]3S[C@@H](n4ccc5c(Cl)ncnc54)[C@H](O)[C@@H]3O)ccc2cc1Cl [Example 5]
EC50 [1, 3]: 0.0262 µM | EC50 ([2]; Homo sapiens, MCF7, 72 h): ≥ 10 µM

SMILES: C[C@]1(COc2ccc3cc(Br)c(N)nc3c2)S[C@@H](n2ccc3c(Cl)ncnc32)[C@H](O)[C@@H]1O [Example 6, (2R,3S,4R,5R)-2-(((2-amino-3-bromoquinolin-7-yl)oxy)methyl)-5-(4-chloro-7H-pyrrolo[2,3-d]pyrimidin-7-yl)-2-methyltetrahydrothiophene-3,4-diol]
EC50 [1, 3]: 0.0098 µM | EC50 ([2]; Homo sapiens, MCF7, 72 h): 1.13 µM

SMILES: CC1(COc2ccc3cc(Br)c(N)nc3c2)SC(n2ccc3c(N)ncnc32)C(O)C1O [Example 7, (2R,3R,4R,5R)-2-(((2-amino-3-bromoquinolin-7-yl)oxy)methyl-5-(4-amino-7H-pyrrolo[2,3-d]pyrimidin-7-yl)-2-methyltetrahydrothiophene-3,4-diol]
EC50 [1, 4]: 0.531 µM | EC50 [1, 3]: 0.0025 µM | EC50 ([2]; Homo sapiens, MCF7, 72 h): 0.121 µM

SMILES: COc1ncnc2c1ccn2[C@@H]1S[C@H](COc2ccc3ccc(NCC4CC4)nc3c2)[C@@H](O)[C@H]1O [Example 8, (2R,3S,4R,5R)-2-(((2-((cyclopropylmethyl)amino)quinolin-7-yl)oxy)methyl)-5-(4-methoxy-7H-pyrrolo[2,3-d]pyrimidin-7-yl)tetrahydrothiophene-3,4-diol]
EC50 [1, 3]: 38.3 µM | EC50 ([2]; Homo sapiens, MCF7, 72 h): 3.71 µM

SMILES: Cc1ncnc2c1ccn2[C@@H]1S[C@H](COc2ccc3ccc(NCC4CC4)nc3c2)[C@@H](O)[C@H]1O [Example 9, (2R,3S,4R,5R)-2-(((2-((cyclopropylmethyl)amino)quinolin-7-yl)oxy)methyl)-5-(4-methyl-7H-pyrrolo[2,3-d]pyrimidin-7-yl)tetrahydrothiophene-3,4-diol]
EC50 [1, 4]: 2.54 µM | EC50 [1, 3]: 0.014 µM | EC50 ([2]; Homo sapiens, MCF7, 72 h): 0.0584 µM

Results, then the molecule that gave them:

EC50 [1, 3]: 0.0007 µM | EC50 ([2]; Homo sapiens, MCF7, 72 h): 0.0014 µM
SMILES: Cc1cc2ccc(CC[C@H]3S[C@@H](n4ccc5c(C)ncnc54)[C@H](O)[C@@H]3O)cc2nc1N (single isomer, unassigned) [Example 28]

EC50 [1, 3]: 0.0006 µM | EC50 ([2]; Homo sapiens, MCF7, 72 h): 0.0009 µM
SMILES: Cc1cc2ccc(CC[C@@H]3S[C@@H](n4ccc5c(C)ncnc54)[C@H](O)[C@@H]3O)cc2nc1N (single isomer, unassigned) [Example 29]

EC50 [1, 3]: 0.0219 µM | EC50 [2]: 2.44 µM
SMILES: Cc1ncnc2c1ccn2[C@@H]1S[C@@H](CCc2ccc3cc4c(nc3c2)NC(C)C4)[C@@H](O)[C@H]1O (single isomer, unassigned) [Example 39, (2S,3S,4R,5R)-2-(2-((R or S)-2-methyl-2,3-dihydro-1H-pyrrolo[2,3-b]quinolin-7-yl)ethyl)-5-(4-methyl-7H-pyrrolo[2,3-d]pyrimidin-7-yl)tetrahydrothiophene-3,4-diol]

EC50 [1, 3]: 0.0579 µM
SMILES: Cc1ncnc2c1ccn2[C@@H]1S[C@@H](CCc2ccc3cc4c(nc3c2)NC(C)C4)[C@@H](O)[C@H]1O (single isomer, unassigned) [Example 40, (2S,3S,4R,5R)-2-(2-((S or R)-2-methyl-2,3-dihydro-1H-pyrrolo[2,3-b]quinolin-7-yl)ethyl)-5-(4-methyl-7H-pyrrolo[2,3-d]pyrimidin-7-yl)tetrahydrothiophene-3,4-diol]

EC50 [1, 3]: 0.0477 µM | EC50 [2]: 0.055 µM
SMILES: Cc1ncnc2c1ccn2[C@@H]1SC(CCc2ccc3ccc(NCC(F)F)nc3c2)[C@@H](O)[C@H]1O (stereo in doubt) [Example 27, (2S,3S,4R,5R)-2-(2-{2-[(2,2-difluoroethyl)amino]quinolin-7-yl}ethyl)-5-(4-methyl-7H-pyrrolo[2,3-d]pyrimidin-7-yl)tetrahydrothiophene-3,4-diol]

EC50 [1, 4]: 16.2 µM | EC50 [1, 3]: 0.0195 µM | EC50 ([2]; Homo sapiens, MCF7, 72 h): 6.02 µM
SMILES: COc1ncnc2c1ccn2[C@@H]1S[C@H](COc2ccc3ccc(N)nc3c2)[C@@H](O)[C@H]1O [Example 10, (2R,3S,4R,5R)-2-(((2-aminoquinolin-7-yl)oxy)methyl)-5-(4-methoxy-7H-pyrrolo[2,3-d]pyrimidin-7yl)tetrahydrothiophene-3,4-diol]

EC50 [1, 4]: 0.055 µM | EC50 [1, 3]: 0.0007 µM | EC50 ([2]; Homo sapiens, MCF7, 72 h): 0.0871 µM
SMILES: Nc1ccc2ccc(OC[C@H]3S[C@@H](n4ccc5c(N)ncnc54)[C@H](O)[C@@H]3O)cc2n1 [Example 11, (2R,3R,4S,5R)-2-(4-amino-7H-pyrrolo[2,3-d]pyrimidin-7-yl)-5-(((2-aminoquinolin-7-yl)oxy)methyl)tetrahydrothiophene-3,4-diol]

EC50 [1, 3]: 0.0007 µM | EC50 ([2]; Homo sapiens, MCF7, 72 h): 0.0013 µM
SMILES: Nc1nc2cc(CC[C@H]3S[C@@H](n4ccc5c(N)ncnc54)[C@H](O)[C@@H]3O)ccc2cc1Br [Example 12, (2R,3S,4R,5R)-2-(2-(2amino-3bromoquinolin-7-yl)ethyl)-5-(4-amino-7H-pyrrolo[2,3-d]pyrimidin-7-yl)tetrahydrothiophene-3,4-diol]

EC50 [1, 3]: 0.0003 µM | EC50 ([2]; Homo sapiens, MCF7, 72 h): 0.0032 µM
SMILES: Nc1nc2cc(CC[C@@H]3S[C@@H](n4ccc5c(N)ncnc54)[C@H](O)[C@@H]3O)ccc2cc1Br [Example 13, (2S,3S,4R,5R)-2-(2-(2-amino-3-bromoquinolin-7-yl)ethyl)-5-(4-amino-7H-pyrrolo[2,3-d]pyrimidin-7-yl)tetrahydrothiophene-3,4-diol]
